Data set [1] has as its system Salmonella typhimurium. Nature of the data set: Residual biocidal effect of skin associated iodine, repeated experiment. It is filed as in vivo. The settings on record: saturated molecular iodine solution (320 ppm).
Data set [2] concerns Pseudomonas aeruginosa. The data set is described as above. It is filed as in vivo. The settings on record: saturated molecular iodine solution (320 ppm).
In data set [3] the test system is Streptococcus agalactica. The data set is described as above. It is filed as in vivo. The conditions noted are these: saturated molecular iodine solution (320 ppm).
Data set [4] can be described thus: Concentration of molecular iodine in a saturated solution. It is filed as physicochemical. The conditions noted are these: pH of 4.5. On the procedure: 5. […] A saturated solution of molecular iodine was prepared at a pH of 4.5. The concentration of molecular iodine was measured to be 320 ppm and the concentration of triiodide was determined to be less than 5 ppm. A 1.0 dram vial containing four mL of the saturated iodine solution was contacted with the forearm of a subject and then the forearm was inverted to initiate contact of the sample with the molecular iodine solution. The samples were contacted with the arm for 30 seconds. After contact the treated arm was flushed with water for 15 seconds and dried.

A short description of data set [5]: Sub dermal penetration of iodine measured by iodine analysis of 24 hour urine. It is filed as in vivo, human. The conditions noted are these: 300 ppm molecular iodine applied to skin 4 times over six hours; lines = Subjects 1-3 (prior: 95, 114, 106); listed as I2. On the procedure:
11. The 300 ppm samples of molecular iodine described in Example 1 was used to confirm that molecular iodine will penetrate into skin and permeate into the skin to provide sub dermal tissue penetration.
Application of the iodine solution onto skin was performed as described in Example 1 above with two exceptions: (1) the contacted area was flushed with water for 15 seconds immediately after following contact between the iodine solution and skin and (2) the sample was applied to the skin once every 2 hours over a six hour time period (4 applications).
Twenty-four hour urine samples were collected on three subjects for the day immediately prior to the experiment. […] The urine samples were analyzed to determine their total iodine content. Urinary concentrations of total iodide were measured by utilizing the reduction-oxidation reaction between ceric ioni and arsenite ion catalyzed by iodide. […] Arsenious acid was added, the samples were transferred to an autoanalyzer, ceric ammonium sulfate was added “on line” and the optical transmission was measured spectrophometrically at 420 nm. […] If the yellow color fades to colorless (clear) within 1.5 minutes, the iodine content is too high to be measured. […] The % transmission was recorded and the concentration of iodine in each sample was determined by comparison to the standards.

In data set [6] the test system is Human Skin. The data set is described as follows: Coloration of human skin by a 30 second exposure (vial contact on forearm); hue by Pantone chips, intensity against Brown No. 3 dye. The settings on record: for Coloration of human skin: 30 second exposure, lines = Subjects 1-3. Details: key to Coloration of human skin: N = no visible staining; L = light staining barely noticeable; S = a clearly visible coloration. It is filed as in vivo. An excerpt:
1. […] Elemental iodine was weighed on an analytical balance and dissolved in one liter of water that had been acidified with 2 drops of 0.1N hydrochloric acid. The concentration of molecular iodine in the water was confirmed by potentiometric analysis (Gottardi, W., 1983. Fresenius Z. Anal. Chem., Vol. 314, pages 582-585). Samples were also titrated with thiosulfate to determine that at least 95% of the theoretical yield of titratable iodine was in the form of molecular iodine as opposed to triiodide. The concentration of molecular iodine was varied from 25 ppm to 330 ppm.
One dram vials (Kimble catalog #60931) were used to deliver 4 mL of the room temperature iodine solutions samples. The vials were placed on the forearm of a subject and then the forearm was inverted to initiate contact of the sample with the iodine solution. The contact area was a circle with a diameter of 1.3 cm. The samples were held on the arm for 30 seconds at room temperature. Three different subjects were used for this experiment. Immediately after the 30 second contact time the arms of the subjects were examined for stains; 10 minutes after the end of the contact time all subjects arms were examined for stains again..
For the purposes of this application, two different parameters were used to characterize the color and intensity of the term stain. The hue of the color imparted to skin was characterized by using the Pantone Color Matching System (Pantone Color Specifier, Pantone Inc., Carlstadt, N.J.) which allows comparison with 1,012 defined colors on two types of paper. Stains from triiodide were matched to the Pantone color chip No. 152C. Short-lived coloration from molecular iodine were matched to the Pantone color chip 1375C.
The intensity of any coloration on skin was characterized by applying an aqueous solution of known concentrations of a food dye, Brown No. 3 (Crompton & Knowles, Mahwah, N.J. —Code DP935159), for 10 seconds using the method described above for application of iodine. Brown No. 3 was applied to the skin at concentrations that ranged from 500 ppm to 30 ppm and the intensity of the color from Brown No. 3 was compared to the intensity of coloration from iodine compositions. For instance, the intensity of color 10 minutes after a 30 second contact with a 600 ppm aqueous triiodide solution was equivalent to the color from a 10 second exposure to a 250 ppm Brown No. 3 solution. In contrast, the intensity of color 10 minutes after a 30 second contact with a 300 ppm aqueous molecular iodine solution was equivalent to the color from a ten second exposure to a 30 ppm Brown No. 3 solution which is barely discernible.

The subject of data set [7] is Staphylococcus epidermidis. The data set is described as follows: Residual biocidal effect of skin associated iodine, repeated experiment. It is filed as in vivo. The settings on record: saturated molecular iodine solution (320 ppm).

“And” between values parts separate entries of the source, which are not always exact repeats. Equal entries are not always repeated.

Regarding `II` [Molecular Iodine, molecular iodine], the “Residual biocidal efficacy on skin” value in data set [1], in data set [3] and in data set [7] was “Efficacy was also demonstrated” each time. Also, the “Log reduction (smallest observed)” value in data set [2] is given as 0.5 logs. Further, the “Concentration of molecular iodine in saturated solution” value in data set [4] is 320 ppm. Moreover, the “24 Hour Urine iodine, Post I2 Application” value in data set [5] was 647 ug iodine and 846 ug iodine and 741 ug iodine. Also, the “Coloration of human skin” value in data set [6] (25 ppm molecular iodine, 0 min post contact) was “N”; in data set [6] (25 ppm molecular iodine, 10 min post contact) it was “N”; in data set [6] (50 ppm molecular iodine, 0 min post contact) it was “N”; in data set [6] (50 ppm molecular iodine, 10 min post contact), “N”; in data set [6] (100 ppm molecular iodine, 0 min post contact), “N and L”; in data set [6] (100 ppm molecular iodine, 10 min post contact) it was “N”. Moreover, the “Coloration of human skin” value in data set [6] (200 ppm molecular iodine, 0 min post contact) is “S”; in data set [6] (200 ppm molecular iodine, 10 min post contact), “N”; in data set [6] (300 ppm molecular iodine, 0 min post contact), “S”; in data set [6] (300 ppm molecular iodine, 10 min post contact), “N and L”. Moreover, the “Intensity of color on skin, equivalent Brown No. 3 solution (ten second exposure)” value in data set [6] (10 minutes after a 30 second contact with a 300 ppm aqueous molecular iodine solution, barely discernible) was determined as 30 ppm. Besides, in data set [6] (Pantone Color Matching System), the “Hue of the color imparted to skin, matched Pantone color chip” value worked out at 1375C.

These data come from US6432426B1, “Non-staining topical iodine composition and method” (Symbollon Corporation, priority 1998, dated 2002).
